Measured values as given in patent publication US20250064773A1, “TARGETING ERO1 ALPHA WITH AURONE DERIVATIVES” (West Virginia University Board of Governors on behalf of …, priority 2021, published 2025).

Key:
purified human ERO1α = target: T1, purified human ERO1α (Homo sapiens, UniProt Q96HE7, C104A/C131A/C166A); test: Recombinant ERO1α enzyme assay (Amplex Red); format: biochemical; conditions: for inhibition at 10 µM: average of N = 3 ± S.D., read-out: % inhibition (10 μM) of ERO1α enzyme activity compared to vehicle control
T1 construct: made in house
T1 sequence (Q96HE7 22-468 C104A/C131A/C166A): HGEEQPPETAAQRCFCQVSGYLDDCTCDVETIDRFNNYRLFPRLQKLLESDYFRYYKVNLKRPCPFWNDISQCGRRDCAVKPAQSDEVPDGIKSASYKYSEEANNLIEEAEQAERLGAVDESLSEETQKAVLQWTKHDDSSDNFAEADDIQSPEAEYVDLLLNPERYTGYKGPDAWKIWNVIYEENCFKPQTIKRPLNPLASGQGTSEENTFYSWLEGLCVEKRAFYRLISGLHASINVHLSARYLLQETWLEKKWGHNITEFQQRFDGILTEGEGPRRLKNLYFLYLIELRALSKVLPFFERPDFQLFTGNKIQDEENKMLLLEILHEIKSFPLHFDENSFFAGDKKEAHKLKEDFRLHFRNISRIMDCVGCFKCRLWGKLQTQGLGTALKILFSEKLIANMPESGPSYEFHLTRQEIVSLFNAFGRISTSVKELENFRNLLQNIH
Experimental: Based on previous work which established an aurone chemical class of compounds as FAD containing enzyme inhibitors^37, we evaluated sulfuretin analogs for ERO1α enzyme inhibition.
Quantification of enzymatic activity of ERO1α was performed using the Amplex Red as previously described^6.

LSD-1 = LSD-1 (Homo sapiens, UniProt O60341); conditions: cited from earlier work
MAO-B = target: T2, MAO-B (Homo sapiens, UniProt P27338); conditions: cited from earlier work
T2 sequence (P27338 1-520): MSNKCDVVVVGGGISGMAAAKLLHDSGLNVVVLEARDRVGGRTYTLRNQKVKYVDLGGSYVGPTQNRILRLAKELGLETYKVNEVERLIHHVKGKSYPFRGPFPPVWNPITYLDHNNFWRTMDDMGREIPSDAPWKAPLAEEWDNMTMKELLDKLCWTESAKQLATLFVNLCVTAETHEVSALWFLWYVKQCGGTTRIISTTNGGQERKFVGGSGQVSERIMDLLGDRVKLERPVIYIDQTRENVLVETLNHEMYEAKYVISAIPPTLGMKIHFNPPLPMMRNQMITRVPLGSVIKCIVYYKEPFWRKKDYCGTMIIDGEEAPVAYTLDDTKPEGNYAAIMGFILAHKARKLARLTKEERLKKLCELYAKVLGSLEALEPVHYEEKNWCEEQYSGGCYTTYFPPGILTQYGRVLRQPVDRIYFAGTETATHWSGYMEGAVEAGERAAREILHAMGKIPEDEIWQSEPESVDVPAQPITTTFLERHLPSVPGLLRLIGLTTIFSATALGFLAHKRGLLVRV

MAO-A = target: T3, MAO-A (Homo sapiens, UniProt P21397); conditions: cited from earlier work
T3 sequence (P21397 1-527): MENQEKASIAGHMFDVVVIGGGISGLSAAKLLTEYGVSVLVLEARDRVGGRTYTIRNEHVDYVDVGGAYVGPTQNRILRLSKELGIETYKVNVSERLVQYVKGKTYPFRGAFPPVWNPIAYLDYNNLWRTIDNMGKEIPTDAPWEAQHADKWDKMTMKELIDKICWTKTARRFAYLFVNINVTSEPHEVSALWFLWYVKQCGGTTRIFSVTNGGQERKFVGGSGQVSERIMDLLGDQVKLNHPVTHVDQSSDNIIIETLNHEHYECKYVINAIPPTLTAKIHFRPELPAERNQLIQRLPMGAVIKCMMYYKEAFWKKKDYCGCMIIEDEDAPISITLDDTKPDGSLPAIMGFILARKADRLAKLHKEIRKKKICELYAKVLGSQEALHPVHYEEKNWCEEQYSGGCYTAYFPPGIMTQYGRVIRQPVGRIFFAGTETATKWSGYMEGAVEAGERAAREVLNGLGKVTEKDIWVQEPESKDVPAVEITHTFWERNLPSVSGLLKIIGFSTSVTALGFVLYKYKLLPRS

PC-9 cells = test: Soft agar clonogenic assay, PC-9; format: cell-based; conditions: 14 days, 3.75-15 μM
Experimental: (§1) We utilized an MTT assay to determine the potency of the compounds for inhibiting cell growth. […] We next asked whether T151742 induced inhibition of cell growth was dependent on ERO1α expression. As shown in FIG. 6C two ERO1α deleted clones in the PC-9 cell line were isolated. Using an MTT assay to determine overall cellar viability, a non-targeted control (scramble), and both ERO1α knockout clones was subjected to treatment with T151742 for 72 hours (See FIG. 6D). […] Though only slight differences were observed between T151742 and EN-460 we tested the effects of these compounds in a clonogenic assay which is a better test for inhibition of self-renewal.
FIG. 7A and FIG. 7B show 1000 cells/well were plated in a 12-well plate in triplicate with either 0.5% DMSO, T151742, or EN-460 and allowed to form colonies for 14 days. Colonies were subsequently stained with 0.01% Crystal Violet, imaged, and quantified using ImageJ. […] Colonies were stained with 0.01% Crystal Violet, imaged, and quantified using ImageJ.
Cell Lines: PC-9 cell line used was obtained from Sigma Aldrich and grown in RPMI 1640 medium with 10% fetal bovine serum and 1% penicillin/streptomycin. […] Plate was then read on the BioTek Cytation 5 at 530/590 nm. […] Plate was then read at 570 nm. […] Images were then quantified using ImageJ. […]

[1] = tested on: PC-9 non-small cell lung cancer cell line; test: MTT viability assay, PC-9; format: cell-based; conditions: 72 h, read-out: IC50, MTT assay, PC-9
Experimental: as §1
Cell Lines: PC-9 cell line used was obtained from Sigma Aldrich and grown in RPMI 1640 medium with 10% fetal bovine serum and 1% penicillin/streptomycin. HCC4006, U266, MM1.s, and Beas-2B cell lines were obtained from ATCC and cultured in either RPMI 1640 or DMEM with 10% fetal bovine serum and 1% penicillin/streptomycin. All cell lines were also checked for mycoplasma every six months and subjected to short tandem repeat (STR) analysis for cell line validation. CRISPR Cas9: CRISPR Guide RNA 2 targeting ERO1α and CRISPR Guide RNA 4 were purchased from Genscript in the pLentiCRISPR V2 plasmid containing puromycin/ampicillin selection marker. Lentivirus was made from HEK 293T cells by co-transfection with GuideRNA of interest, pVSVG, and pPAX2 plasmids. Lentivirus was collected after 48 hours and concentrated using 40% PEG8000. […] Plate was then read on the BioTek Cytation 5 at 530/590 nm. […] Plate was then read at 570 nm. Treated wells were all compared to DMSO control wells to calculate percent growth inhibition and the IC50 was calculated using GraphPad (log(inhibitor) vs growth inhibition). […] Images were then quantified using ImageJ. […] Cells were aliquoted at 1 million cells per PCR tube in PBS and heated in Bio-Rad T100 thermal cycler at indicated temperatures (RT, 46° C., 48° C., 50° C., 52° C., 54° C., 56°, 58° C., and 60° C.) for 3 minutes and aggregation temperature was determined by western blot analysis. […]

N[C@@H]1C[C@H]1c1ccccc1 (racemic) [tranylcypromine, reference compound]
inhibition of ERO1α activity (concentration response, FIG. 8) (purified human ERO1α; covalent modifiers of FAD): did not inhibit

O=C(O)c1cc(N2N=C(C(F)(F)F)/C(=C/c3ccc(-c4ccccc4)o3)C2=O)ccc1Cl [EN-460, reference compound]
inhibition of LSD-1 (LSD-1): inhibits
inhibition of / activity against MAO-B (MAO-B): inhibits
inhibition of / activity against MAO-A (MAO-A): inhibits
activity in clonogenicity assay (colony number) (PC-9 cells): devoid of activity
IC50 (purified human ERO1α; purified human ERO1α 0.0625 mg/mL, PDI 0.0625 mg/mL, mean ± S.D., N=3): 16.5 ± 3.47 µM

O=C(O)c1ccc(/C=C2\Oc3cc(O)ccc3C2=O)cc1 [SR-F-114]
IC50 [1]: 32.4 ± 6.01 µM

O=C1/C(=C/c2c(F)cccc2Cl)Oc2cc(O)ccc21 [SR-F-125]
inhibition at 10 µM (purified human ERO1α): 20.7 ± 4.92%

O=C1/C(=C/c2ccc(-c3ccccc3)cc2)Oc2cc(O)ccc21 [SR-F-126]
inhibition at 10 µM (purified human ERO1α): 38.7 ± 1.56%
